Like-named read-outs stand apart in the source and are kept apart here.
Key:
[1] = test system: SNB-19 glioblastoma cells; experiment: MTT cytotoxicity assay, SNB-19; type: cell-based; conditions: Homo sapiens, 72 h incubation, mean ± SEM of three experiments, read-out: Cytotoxicity (GI50) against SNB-19
Procedure: (§1) The cytotoxicity of the synthesized series of 4-substituted 5, 13–17, 22, 23, 2-substituted 25–30 and 2,4-disubstituted 1-hydroxy-9,10-anthraquinones 33–38, 40–45 was evaluated against a panel of seven different human cancer cell lines (glioblastoma cancer cells, human prostate cancer cells, T-cellular human leucosis, breast cancer cells) and also a normal cell line of hTERT-immortalized lung fibroblasts, using conventional MTT assay. Doxorubicin (DOX) is clinically used to treat cancer as drug in world and have a very wide antitumor spectrum. That we use them as positive control compounds. The cytotoxicity was determined by measuring the concentration inhibiting human tumor cell viability by 50% (GI50).
(§2) The human cancer cells of the glioblastoma (U-87MG, SNB-19, T98G), prostate cancer cell line (LNCAP, DU-145), the cells of T-cellular human leucosis (MT-4) and human breast cancer cells (MDA-MB-231) were used in this study. The cells were cultured in the RPMI-1640 medium that contained 10% embryonic calf serum, L-glutamine (2 mmol/L), gentamicin ([…]) and lincomycin (30 mkg/mL) in a CO2 incubator at 37 °C. The tested compounds were dissolved in DMSO and added to the cellular culture at the required concentrations. Three wells were used for each concentration. The cells which were incubated without the compounds were used as a control. Cells were placed on 96-well microliter plates and cultivated at 37 °C in 5% CO2/95% air for 72 h. The cell viability was assessed through an MTT [3-(4,5-dimethylthiazol-2-yl)-[…]-2H-tetrazolium bromide] conversion assay. A total of 1% MTT was added to each well. Four hours later, DMSO was added and mixed for 15 min. Optical density (D) of the samples was measured on a BioRad 680 multi-well spectrophotometer (USA) at the wavelength of 450 nm. The 50% cytotoxic dose GI50) of each compound (i.e., the compound concentration that causes the death of 50% of cells in a culture, or decreases the optical density twice as compared to the control wells) was calculated from the data obtained. Statistical processing of the results was performed using the Microsoft Excel-2007, […] 6.0 and GraphPad Prism 5.0 programs. The results are given as an average value ± a deviation from the average (mean ± standard error of the mean (SEM)). Reliability of differences (p) was estimated using the Student t test. The differences with p < 0.05 were considered as reliable. The experimental results are given as the data average values obtained from three independently conducted experiments.

[2] = test system: U-87MG glioblastoma cells; experiment: MTT cytotoxicity assay, U-87MG; type: cell-based; conditions: Homo sapiens, 72 h incubation, mean ± SEM of three experiments, read-out: Cytotoxicity (GI50) against U-87MG
Procedure: as §1, §2

[3] = test system: T98G glioblastoma cells; experiment: MTT cytotoxicity assay, T98G; type: cell-based; conditions: Homo sapiens, 72 h incubation, mean ± SEM of three experiments, read-out: Cytotoxicity (GI50) against T98G
Procedure: as §1, §2

[4] = test system: LNCAP prostate cancer cells; experiment: MTT cytotoxicity assay, LNCAP; type: cell-based, human; conditions: 72 h incubation, mean ± SEM of three experiments, read-out: Cytotoxicity (GI50) against LNCAP
Procedure: as §1, §2

[5] = test system: DU-145 prostate cancer cells; experiment: MTT cytotoxicity assay, DU-145; type: cell-based, human; conditions: Homo sapiens, DU-145, 72 h, 72 h incubation, mean ± SEM of three experiments, read-out: Cytotoxicity (GI50) against DU-145
Procedure: as §1, §2

[6] = test system: MT-4 cells of T-cellular human leucosis; experiment: MTT cytotoxicity assay, MT-4; type: cell-based; conditions: MT4, 72 h incubation, mean ± SEM of three experiments, read-out: Cytotoxicity (GI50) against MT-4
Procedure: as §1, §2

[7] = test system: MDA-MB-231 breast cancer cells; experiment: MTT cytotoxicity assay, MDA-MB-231; type: cell-based; conditions: Homo sapiens, 72 h incubation, mean ± SEM of three experiments, read-out: Cytotoxicity (GI50) against MDA-MB-231
Procedure: as §1, §2

[8] = MTT cytotoxicity assay, normal hTERT-immortalized lung fibroblasts; type: cell-based; conditions: human, hTERT-immortalized lung fibroblasts (normal cell line), 72 h incubation, mean ± SEM of three experiments, read-out: Cytotoxicity (GI50) against hTERT Lung Fibroblasts
Procedure: as §1, §2

[9] = test system: pUC19 DNA plasmid; experiment: Gel retardation (electrophoretic mobility shift) assay; type: binding; conditions: 0.5 µg pUC19 plasmid, 0.025 µM test compound, room temperature 1 h, agarose gel 60 V 4 h
Procedure: The interaction of compounds 13, 15, 16, 23, 25 27, 28, 35, 40 and 44 with DNA was experimentally confirmed by study of the electrophoretic mobility. For this the gel retardation assay was performed. Doxorubicin in different concentration was used as a positive control. In order to avoid destruction of the possible complex of DNA with compounds, the electrophoresis was performed at low voltage. The results are presented at Figure 3.
To study the interaction between test compounds and DNA the electrophoretic mobility shift assay was performed. 0.5 µg of pUC19 plasmid was incubated with 0.025 µM of test compounds at room temperature for 1 h. After that the electrophoresis was performed in agarose gel (1/2%) in TBE buffer (60 V, 4 h). For visualization the gel was staining with ethidium bromide and analyzed with Bio-Rad gel documentation system.

[10] = test system: SNB-19 cells; experiment: Cell cycle analysis by flow cytometry (Hoechst 33342), SNB-19; type: cell-based, human; conditions: SNB-19, treated at GI50 concentration, 24 h
Procedure: Due to the fact that the implementation of the antitumor potential of the currently existing antitumor agents is carried out by acting on various biological targets, at the next stage we performed the cell cycle analysis and DNA synthesis. Cell cycle analysis of 1-hydroxy-4-phenyl-9,10-anthraquinone 13, 1-hydroxy-4-(2,3-dimethoxyphenyl)-9,10- anthraquinone 16, 1-hydroxy-4-(furan-3-yl)-9,10-anthraquinone 23 and 1-hydroxy- 2-(2,3-dimethoxyphenyl)-9,10-anthraquinone 28 against SNB-19 cells for 24 h produced interesting results. After examining the data for compounds 13 and 16 (Table 3, Figure 4C,D), good number of cells are distributed in S phase, i.e., initiated DNA replication mechanism and also in G0/G1 phase, i.e., initial phase of cell cycle. G1 and G2 are the growth phases in cell cycle analysis, whereas S phase is a synthetic phase wherein DNA replication and DNA synthesis take place. The 2-aryl substituted compound 28 initiated the G0/G1 phase in analogy with doxorubicin and mitomycin. […] Further, compounds play a vital role in controlling the regulation of Sub-G1 and G2/M phases. Some difference in the mechanism of operation of 4-aryl substituted 13,16 and 2-aryl substituted 9,10-anthraquinones 28 has been observed during the progression of cell cycle like: S phase was highly disturbed by 13; G0/G1 phase was highly disturbed by 28. […] This observation can be explained by the influence on the cell repair systems that respond to the intercalation of compounds in DNA. […] Further, mitoxantrone promotes the arrest of S phase of cell cycle.
For cell cycle analysis cells were seeded in 6-well plates (30,000 per plate) and incubate for adhesion for 24 h. […] Cells were washed with PBS twice, harvested, pelleted and resuspended in 0.5 mL of PBS. For staining the Hoechst 33342 Ready Flow Reagent (Invitrogen) was used according to the instruction. CytoFLEX flow cytometer (Beckman Coulter) was used for analysis. The results are presented as a percentage of cell population standing in different stages of the cell cycle.

[11] = test system: SNB-19 cells; experiment: DNA synthesis investigation (BrdU/PI flow cytometry), SNB-19; type: cell-based, human; conditions: SNB-19, treated at GI50 concentration, 24 h, BrdU 30 min

| melting point | Compound | GI50 [1] | GI50 [2] | GI50 [3] | GI50 ([4]; Homo sapiens, LNCaP, 72 h) | GI50 [5] | GI50 [6] | GI50 [7] | GI50 at 72 h [8] | Retardation of plasmid DNA (electrophoretic mobility) [9] | Population (% Cell Distribution) G0/G1 [10] | Population (% Cell Distribution) G2/M [10] | Population (% Cell Distribution) S [10] | Population (% Cell Distribution) Sub-G1 [10] | Population (% Cell Distribution) Super-G2 [10] | Population (% Cell Distribution) DNA Synthesis [11] | GI50 [4] |
| --- | --- | --- | --- | --- | --- | --- | --- | --- | --- | --- | --- | --- | --- | --- | --- | --- | --- |
| 209.2 to 209.4 °C | COc1ccc(-c2ccc(O)c3c2C(=O)c2ccccc2C3=O)cc1 [Compound 15, 1-Hydroxy-4-(4-methoxyphenyl)anthracene-9,10-dione] | 9.6 ± 1.04 µM | 45.4 ± 1.87 µM | 11.6 ± 0.78 µM | 28.5 ± 0.96 µM | 6.5 ± 0.48 µM | 32.1 ± 1.54 µM | 6.8 ± 0.58 µM | 42 ± 2.04 µM | cause a retardation of plasmid DNA | – | – | – | – | – | – | – |
| 190 °C (dec.) | O=C1c2ccccc2C(=O)c2c(-c3ccoc3)ccc(O)c21 [Compound 23, 1-(Furan-3-yl)-4-hydroxyanthracene-9,10-dione] | 37 ± 1.41 µM | 58.7 ± 2.48 µM | 34.8 ± 1.06 µM | 22.2 ± 2.12 µM | 15.4 ± 0.96 µM | 56.1 ± 1.96 µM | 18.2 ± 1.27 µM | 69.5 ± 1.52 µM | cause a retardation of plasmid DNA | 34.6% | 17.3% | 32.5% | 3.1% | 11.8% | 22.71% | – |
| 209.5 °C (dec.) | COc1ccc(-c2ccc3c(c2O)C(=O)c2ccccc2C3=O)cc1 [Compound 27, 1-Hydroxy-2-(4-methoxyphenyl)anthracene-9,10-dione] | 8.5 ± 0.32 µM | 35.8 ± 2.17 µM | 21.6 ± 0.38 µM | > 100 µM | 19.1 ± 0.78 µM | 38.6 ± 1.36 µM | 23.2 ± 2.34 µM | 46.5 ± 1.21 µM | cause a retardation of plasmid DNA | – | – | – | – | – | – | – |
| 176.3 °C (dec.) | COc1cccc(-c2ccc3c(c2O)C(=O)c2ccccc2C3=O)c1OC [Compound 28, 2-(2,3-Dimethoxyphenyl)-1-hydroxyanthracene-9,10-dione] | 5.77 ± 0.23 µM | > 100 µM | 32.6 ± 1.68 µM | 23.1 ± 1.24 µM | > 100 µM | 18.2 ± 0.86 µM | 42.4 ± 3.32 µM | 51.3 ± 3.18 µM | – | 54.5% | 13.7% | 22.4% | 3.6% | 5.8% | 16.83% | – |
| 226.4 °C (dec.) | COc1ccc(-c2cc(-c3ccc(OC)cc3)c3c(c2O)C(=O)c2ccccc2C3=O)cc1 [Compound 35, 1-Hydroxy-2,4-di-(4-methoxyphenyl)anthracene-9,10-dione] | 10.1 ± 1.08 µM | 25.7 ± 3.14 µM | 9.8 ± 0.56 µM | 26.7 ± 1.86 µM | 5.9 ± 0.52 µM | 20.2 ± 1.04 µM | 7.6 ± 0.64 µM | 17.7 ± 0.96 µM | cause a retardation of plasmid DNA | – | – | – | – | – | – | – |
| 241.3 °C (dec.) | COc1ccc(-c2cc(Br)c(O)c3c2C(=O)c2ccccc2C3=O)cc1 [Compound 41, 2-Bromo-1-hydroxy-4-(4-methoxyphenyl)anthracene-9,10-dione] | 14.1 ± 3.15 µM | 44.5 ± 1.56 µM | 29.7 ± 2.05 µM | 41.1 ± 5.15 µM | > 100 µM | 44.1 ± 3.23 µM | 15.8 ± 0.82 µM | 17.2 ± 0.62 µM | – | – | – | – | – | – | – | – |
| 217.4 °C (dec.) | COc1cc(-c2cc(Br)c3c(c2O)C(=O)c2ccccc2C3=O)cc(OC)c1OC [Compound 42, 4-Bromo-1-hydroxy-2-(3,4,5-trimethoxyphenyl)anthracene-9,10-dione] | 31.6 ± 2.16 µM | > 100 µM | 11.5 ± 1.34 µM | 71.8 ± 9.76 µM | 23.9 ± 4.28 µM | > 100 µM | 21.1 ± 3.28 µM | 18.2 ± 2.19 µM | – | – | – | – | – | – | – | – |
| 60.4 °C (dec.) | COc1cc(-c2cc(-c3ccccc3)c3c(c2O)C(=O)c2ccccc2C3=O)cc(OC)c1OC [Compound 43, 1-Hydroxy-4-phenyl-2-(3,4,5-trimethoxyphenyl)anthracene-9,10-dione] | 19.2 ± 2.52 µM | > 100 µM | 16.1 ± 0.78 µM | > 100 µM | 18.6 ± 2.45 µM | > 100 µM | 17.1 ± 1.55 µM | 34.1 ± 0.92 µM | – | – | – | – | – | – | – | – |
| 226.8 °C (dec.) | COc1cc(-c2cc(-c3ccc(Cl)cc3C(F)(F)F)c3c(c2O)C(=O)c2ccccc2C3=O)cc(OC)c1OC [Compound 45, 4-(4-Chloro-2-(trifluoromethyl)phenyl)-1-hydroxy-2-(3,4,5-trimethoxyphenyl)-anthracene-9,10-dione] | 11.2 ± 1.49 µM | 18.2 ± 1.06 µM | 28.3 ± 3.25 µM | 6.2 to 7.2 µM | 22.6 ± 0.91 µM | 31.5 ± 1.52 µM | 14.2 ± 1.42 µM | 20.5 ± 2.68 µM | – | – | – | – | – | – | – | 7.2 ± 0.74 µM |

Source: paper PMC7321108, “1-Hydroxyanthraquinones Containing Aryl Substituents as Potent and Selective Anticancer Agents” (Molecules, 2020)
